{
  "source": "paper PMC10714334",
  "about": "“Developing multispecies quorum-sensing modulators based on the Streptococcus mitis competence-stimulating peptide” (The Journal of Biological Chemistry, 2023)",
  "key": {"[1]": {"test_system": "defibrinated rabbit red blood cells", "experiment": "hemolysis assay", "assay_type": "cell-based", "settings": "mean ± S.D., SD", "experimental": "A single colony of S. mitis ATCC 49456 was grown for 16 h at 37 °C with 5% CO2 in 5 mL THY media (pH 7.3). Overnight cultures were then diluted 1:10 in fresh THY media. Samples were prepared in clear bottom 96 -well microtiter plates. Experimental samples were prepared by adding 196 µL of the 1:10 diluted culture and 2 µL of a 1 mM S. mitis-CSP-2 and the lead S. mitis-CSP-2 analogs (lead activator, S. mitis-CSP-2-n11, and lead inhibitor, S. mitis-CSP-2-E1Af10r16), or 196 µL of fresh THY media and 2 µL of a 1 mM S. mitis-CSP-2/ S. mitis-CSP-2 analog stock.\nTwo µL of DMSO was added to each well. A positive control was prepared by adding 2 µL of a 1% Triton X solution and 2 µL of DMSO in 196 µL THY media, and negative controls were prepared by adding 4 µL DMSO in either 196 µL 1:10 diluted culture or 196 µL THY media. The 96-well microtiter plate was then incubated for 2 h at 37 °C with 5% CO 2, after which the optical density at 600 nm (OD600) was recorded and hemolysis was assessed. A 1 mL portion of defibrinated rabbit red blood cells ( VWR International) was aliquoted into a sterile 1.5 mL microcentrifuge tube, and centrifuged at 2,000 rpm for 2 min. Following centrifugation, the top layer was aliquoted off, and red blood cells were gently washed with sterile1 mL 1X PBS. This process was repeated for a total of three times, until following centrifugation the top layer was mostly clear. Washed red blood cells were resuspended in sterile 1 mL 1X PBS solution, and a 15 µL aliquot was added to each well of the 96 -well microtiter plate. The plate was then incubated for 30 min at 37 °C. Following incubation, the plate was centrifuged for 4 min at 4 °C at 1600 rpm .\nExperimental wells were then diluted 1:5 in distilled water to prevent saturation of the detector by the positive control. The absorbance at 420 nm (OD420) was then measured for each well.\nExperiments were performed in triplicate on three separate days. Data are presented as the percent hemolysis relative to the .01% Triton X positive control. Results are expressed as the mean +/ - the standard deviation of three independent experiments. […]"}, "[2]": {"test_system": "pneumococcus ComD2 receptor", "settings": "cited from earlier work", "text": "(§1) Table 5 EC50 or IC50 values of select Streptococcus mitis-CSP-2–based pneumococcal QS modulators against the pneumococcus ComD1 and ComD2 and the S. mitis ComD-2 receptors ^a | column: Streptococcus pneumoniae ^b / ComD2 / EC50 or IC50∗ (nM) || In our previous work, we utilized the S. mitis-CSP-2 scaffold to develop analogs capable of modulating the two pneumococcal ComD receptors at low nanomolar concentrations ([2]). We wanted to evaluate whether the optimization of the S. mitis-CSP-2 scaffold to the pneumococcus ComD receptors affected the ability of the modified analogs to interact with the S. mitis ComD-2 receptor."}, "S. mitis ComD-2 receptor": {"biological_target": "S. mitis ComD-2 receptor", "experiment": "luminescence reporter competitive inhibition assay (comX expression)", "assay_type": "cell-based, Streptococcus mitis", "settings": "for IC50: same reporter strain, competition against 1 μM native S. mitis-CSP-2, 30 min at 37 °C, triplicate on three separate days", "experimental": "As a positive control, 2 μl of S. mitis-CSP-2 and 2 μl of DMSO were added to the same well in triplicate. As a negative control, 4 μl of DMSO was added in triplicate. Then, 2 μl of 15 mg/ml D-luciferin in distilled water was added to each experimental or control well, after which 194 μl of bacteria was added, and the plate was incubated for 30 min at 37 °C. Following incubation, the A600 and luminescence of each experimental well were measured. Results were reported as percent activation, which is the ratio between the luminescence (presented as relative luminescence units, RLU/A600) of the analog and that of the positive control. […] GraphPad Prism was used to calculate the IC50 values, which are the concentration of inhibitor where the response (or binding) is reduced by half. Experiments were performed in triplicate on three separate days.\nAntagonism assays were performed at 10 μM concentration of peptides against 1 µM concentration of S. mitis-CSP-2. S. mitis-CSP-2 (1 µM) was used as the positive control (100%) while DMSO as the negative control (0%). For all figures, comX expression is presented as relative luminescence units (RLU) divided by measured cultural optical density (OD). Percent (%) ComD activation was measured by normalizing the RLU/OD value obtained for each peptide to that of the native S. mitis-CSP-2. The results are averages from three replicates and representative of three independent experiments. Error bars represent the standard error of the mean of nine values.\nFigure S-8. Primary antagonism screening assay data for t he S. mitis-CSP-2 alanine scan and D-amino acid […]\ndetermine its IC50 value.\nFigure S-9. Primary antagonism screening assay data for t he S. mitis-CSP-2 truncated analogs . S. mitis- […]"}, "[3]": {"test_system": "pneumococcus ComD1 receptor", "settings": "cited from earlier work", "text": "as §1, with “/ ComD1” for “/ ComD2”"}, "[4]": {"settings": "peptide alone with S. mitis ATCC 49456 culture"}},
  "note": "Non-standard residues stand in square brackets, D forms with d. Residues, ends and D or L forms follow the SMILES beside them. No end group written: not given here.",
  "data": [
    {"molecule": "CC[C@H](C)[C@H](NC(=O)[C@H](C)N)C(=O)N[C@@H](CCCNC(=N)N)C(=O)N[C@@H](CCC(N)=O)C(=O)N[C@H](C(=O)N[C@@H](Cc1c[nH]cn1)C(=O)N[C@@H](CC(N)=O)C(=O)N[C@H](C(=O)N[C@@H](Cc1ccccc1)C(=O)N[C@H](Cc1ccccc1)C(=O)N[C@@H](CC(N)=O)C(=O)N[C@@H](Cc1ccccc1)C(=O)N[C@@H](Cc1ccccc1)C(=O)N[C@@H](CCCCN)C(=O)N[C@@H](CCCNC(=N)N)C(=O)N[C@H](CCCNC(=N)N)C(=O)O)[C@@H](C)CC)[C@@H](C)O", "note": "[S. mitis-CSP-2-E1Af10r16] (H-AIRQTHNIF[dF]NFFKR[dR]-OH)", "values": [
      {"measurement": "hemolysis relative to Triton X positive control", "setting": "[1]; inhibitor together with S. mitis-CSP-2, with S. mitis ATCC 49456 culture", "result": "-3.1% ±16%"},
      {"measurement": "hemolysis relative to Triton X positive control", "setting": "[1]; inhibitor together with S. mitis-CSP-2 in THY media", "result": "-2.3% ±7.0%"},
      {"measurement": "hemolysis relative to Triton X positive control", "setting": "[1]; [4]", "result": "-6.9% ±19%"}
    ]},
    {"molecule": "CC[C@H](C)[C@H](NC(=O)[C@H](CC(N)=O)NC(=O)[C@H](Cc1c[nH]cn1)NC(=O)[C@@H](NC(=O)[C@H](CCC(N)=O)NC(=O)[C@H](CCCNC(=N)N)NC(=O)[C@@H](NC(=O)[C@@H](N)CCC(=O)O)[C@@H](C)CC)[C@@H](C)O)C(=O)N[C@@H](Cc1ccccc1)C(=O)N[C@@H](Cc1ccccc1)C(=O)N[C@H](CC(N)=O)C(=O)N[C@@H](Cc1ccccc1)C(=O)N[C@@H](Cc1ccccc1)C(=O)N[C@@H](CCCCN)C(=O)N[C@@H](CCCNC(=N)N)C(=O)N[C@@H](CCCNC(=N)N)C(=O)O", "note": "[S. mitis-CSP-2-n11] (H-EIRQTHNIFF[dN]FFKRR-OH)", "values": [
      {"measurement": "hemolysis relative to Triton X positive control", "setting": "[1]; [4]", "result": "-9.8% ±30%"}
    ]},
    {"molecule": "CC(C)(C)CC(C)(C)c1ccc(OCCO)cc1", "note": "[Triton X, reference compound]", "values": [
      {"measurement": "hemolysis, positive control", "setting": "[1]; 0.01% Triton X in THY media", "result": "100% ± 15%"}
    ]},
    {"molecule": "AIRQTHNIFFFLFKRR [S. mitis-CSP-2-E1AN11FF12L]", "values": [
      {"measurement": "inhibitory activity against S. pneumoniae ComD2 receptor", "setting": "[2]", "result": "no inhibitory activity"},
      {"measurement": "IC50", "setting": "S. mitis ComD-2 receptor", "result": "> 1000", "unit": "nM"},
      {"measurement": "inhibitory activity against S. pneumoniae ComD1 receptor", "setting": "[3]", "result": "no inhibitory activity"}
    ]},
    {"molecule": "EIRQTHNIFFNFFKRR [S. mitis-CSP-2, reference compound]", "values": [
      {"measurement": "hemolysis relative to Triton X positive control", "setting": "[1]; [4]", "result": "-9.6% ±24%"}
    ]},
    {"molecule": "IRQTHNIFFNFFKRR [S. mitis-CSP-2-des-E1]", "values": [
      {"measurement": "% ComD activation, primary antagonism screening", "setting": "S. mitis ComD-2 receptor; 10 μM peptide against 1 µM S. mitis-CSP-2 (100%), DMSO 0%", "result": "less than 50%"},
      {"measurement": "IC50", "setting": "S. mitis ComD-2 receptor", "result": "> 1000", "unit": "nM"}
    ]}
  ]
}
